How the values were obtained:
Experiment in all cases: MIC determination, broth microdilution (CLSI)
Assay type in all cases: cell-based
[1] = system: A. baumannii clinical isolate; details: Acinetobacter baumannii, Mueller Hinton Broth II, 37° C., 18-24 hours, read-out: Strain 7 MIC
Description: (§1) Compounds of this invention were tested for antimicrobial activity by determining minimum inhibitory concentrations (MICs, in μg/mL) using the broth microdilution method according to the guidelines of the Clinical Laboratories and Standards Institute (“Methods for Dilution Antimicrobial Susceptibility Tests for Bacteria that Grow Aerobically”, Approved standard, 7th ed., Clinical and Laboratory Standards Institute (CLSI) Document M7-A8, Wayne, Pa., USA, 2009.). AZT: aztreonam (AZT) and ceftazidime (CAZ) were used as control antibiotics. Test compounds were dissolved in DMSO. The compounds were then diluted in microbial growth medium (Mueller Hinton Broth II, cation adjusted) resulting in a final concentration range of 0.063-64 μg/mL in serial two-fold dilution. In all cases the final DMSO concentration was less than 0.5%. Bacteria were added to 96-well microtitre plates containing the two-fold dilutions of the compounds; the final cell density was approximately 5×10^5 colony forming units/mL (CFU/mL). Plates were incubated at 37° C. for 18-24 hours and read visually. The MIC, i.e. the lowest concentration of the test compound that inhibited visible growth of the bacteria, was recorded. The same assay conditions were used when the compounds of this invention were tested in combination with β-lactamase inhibitors. While the compounds of this invention were serially diluted as described above, a constant concentration of the inhibitor of 4 mg/L was used.
(§2) Bacterial strains that were used to evaluate the antimicrobial activity using the MIC determination included but were not limited to E. coli clinical isolate, E. coli 8739, K. pneumoniae clinical isolate, K. pneumoniae 700603, E. cloacae clinical isolate, E. cloacae 700323, A. baumannii clinical isolate, A. baumannii 19606, P. aeruginosa clinical isolate, P. aeruginosa 9027.

[2] = system: K. pneumoniae clinical isolate; details: Klebsiella pneumoniae, Mueller Hinton Broth II, 37° C., 18-24 hours, read-out: Strain 3 MIC
Description: as §1, §2

[3] = system: E. coli clinical isolate; details: Escherichia coli, Mueller Hinton Broth II, 37° C., 18-24 hours, read-out: Strain 1 MIC
Description: as §1, §2

[4] = system: E. coli 8739; details: Escherichia coli, Mueller Hinton Broth II, 37° C., 18-24 hours, read-out: Strain 2 MIC
Description: as §1, §2

[5] = system: P. aeruginosa clinical isolate; details: Pseudomonas aeruginosa, Mueller Hinton Broth II, 37° C., 18-24 hours, read-out: Strain 9 MIC
Description: as §1, §2

[6] = system: E. cloacae clinical isolate; details: Enterobacter cloacae, Mueller Hinton Broth II, 37° C., 18-24 hours, read-out: Strain5 MIC
Description: as §1, §2

[7] = system: P. aeruginosa 9027; details: Pseudomonas aeruginosa, Mueller Hinton Broth II, 37° C., 18-24 hours, read-out: Strain 10 MIC
Description: as §1, §2

[8] = system: E. cloacae 700323; details: Enterobacter cloacae, Mueller Hinton Broth II, 37° C., 18-24 hours, read-out: Strain 6 MIC
Description: as §1, §2

[9] = system: K. pneumoniae 700603; details: Klebsiella pneumoniae, Mueller Hinton Broth II, 37° C., 18-24 hours, read-out: Strain 4 MIC
Description: as §1, §2

[10] = system: A. baumannii 19606; details: Acinetobacter baumannii, Mueller Hinton Broth II, 37° C., 18-24 hours, read-out: Strain8 MIC
Description: as §1, §2

Compound	MIC [1]	MIC [2]	MIC [3]	MIC [4]	MIC [5]	MIC [6]	MIC [7]	MIC [8]	MIC [9]	MIC [10]
CC1(C)[C@H](NC(=O)/C(=N\O[C@@H](COc2ccc(C(=N)N[C@@H]3CCNC3)cc2)C(=O)O)c2nc(N)sc2C(F)(F)F)C(=O)N1OS(=O)(=O)O [Example 7, (S)-2-((((Z)-1-(2-Amino-5-(trifluoromethyl)thiazol-4-yl)-2-(((S)-2,2-dimethyl-4-oxo-1-(sulfooxy)azetidin-3-yl)amino)-2-oxoethylidene)amino)oxy)-3-(4-(N-((R)-pyrrolidin-3-yl)carbamimidoyl)phenoxy)propanoic acid]	16 µg/mL	16 µg/mL	32 µg/mL	8 µg/mL	8 µg/mL	32 µg/mL	16 µg/mL	32 µg/mL	8 µg/mL	16 µg/mL
Cc1sc(N)nc1/C(=N/O[C@@H](COc1ccc(C(=N)N[C@H]2CCNC2)cc1)C(=O)O)C(=O)N[C@@H]1C(=O)N(OS(=O)(=O)O)C1(C)C [Example 3, (S)-2-((((Z)-1-(2-Amino-5-methylthiazol-4-yl)-2-(((S)-2,2-dimethyl-4-oxo-1-(sulfooxy)azetidin-3-yl)amino)-2-oxoethylidene)amino)oxy)-3-(4-(N-((S)-pyrrolidin-3-yl)carbamimidoyl)phenoxy)propanoic acid]	32 µg/mL	32 µg/mL	4 µg/mL	4 µg/mL	8 µg/mL	64 µg/mL	8 µg/mL	32 µg/mL	64 µg/mL	32 µg/mL
Cc1sc(N)nc1/C(=N/O[C@@H](COc1ccc(C(=N)N[C@@H]2CCNC2)cc1)C(=O)O)C(=O)N[C@@H]1C(=O)N(S(=O)(=O)O)[C@H]1C [Example 8, (S)-2-((((Z)-1-(2-amino-5-methylthiazol-4-yl)-2-(((2S,3S)-2-methyl-4-oxo-1-sulfoazetidin-3-yl)amino)-2-oxoethylidene)amino)oxy)-3-(4-(N-((R)-pyrrolidin-3-yl)carbamimidoyl)phenoxy)propanoic acid]	32 µg/mL	32 µg/mL	1 µg/mL	0.5 µg/mL	16 µg/mL	64 µg/mL	1 µg/mL	32 µg/mL	64 µg/mL	16 µg/mL
Cc1sc(N)nc1/C(=N/O[C@@H](COc1ccc(C(=N)NC2CCNCC2)cc1)C(=O)O)C(=O)N[C@@H]1C(=O)N(OS(=O)(=O)O)C1(C)C [Example 1, (S)-2-((((Z)-1-(2-Amino-5-methylthiazol-4-yl)-2-(((S)-2,2-dimethyl-4-oxo-1-(sulfooxy)azetidin-3-yl)amino)-2-oxoethylidene)amino)oxy)-3-(4-(N-(piperidin-4-yl)carbamimidoyl)phenoxy)propanoic acid]	32 µg/mL	32 µg/mL	4 µg/mL	4 µg/mL	16 µg/mL	64 µg/mL	8 µg/mL	32 µg/mL	32 µg/mL	16 µg/mL
C[C@H]1[C@H](NC(=O)/C(=N\OC(C)(C)C(=O)O)c2csc(N)n2)C(=O)N1S(=O)(=O)O [AZT, Aztreonam, reference compound]	> 64 µg/mL	64 µg/mL	> 64 µg/mL	16 µg/mL	> 64 µg/mL	> 64 µg/mL	16 µg/mL	> 64 µg/mL	64 µg/mL	32 µg/mL
Cc1sc(N)nc1/C(=N/O[C@@H](COc1ccc(C(=N)N[C@@H]2CCCNC2)cc1)C(=O)O)C(=O)N[C@@H]1C(=O)N(OS(=O)(=O)O)C1(C)C [Example 2, (S)-2-((((Z)-1-(2-Amino-5-methylthiazol-4-yl)-2-(((S)-2,2-dimethyl-4-oxo-1-(sulfooxy)azetidin-3-yl)amino)-2-oxoethylidene)amino)oxy)-3-(4-(N-((R)-piperidin-3-yl)carbamimidoyl)phenoxy)propanoic acid]	16 µg/mL	32 µg/mL	4 µg/mL	2 µg/mL	8 µg/mL	64 µg/mL	32 µg/mL	32 µg/mL	64 µg/mL	16 µg/mL

Results, then the compound that gave them:

MIC [1]	MIC [2]	MIC [3]	MIC [4]	MIC [5]	MIC [6]	MIC [7]	MIC [8]	MIC [9]	MIC [10]	Compound
> 64 µg/mL	> 64 µg/mL	> 64 µg/mL	> 64 µg/mL	> 64 µg/mL	> 64 µg/mL	> 64 µg/mL	> 64 µg/mL	> 64 µg/mL	> 64 µg/mL	CC(C)(O/N=C(\C(=O)N[C@@H]1C(=O)N2C(C(=O)[O-])=C(C[n+]3ccccc3)CS[C@H]12)c1csc(N)n1)C(=O)O [CAZ, Ceftazidime, reference compound]
32 µg/mL	32 µg/mL	4 µg/mL	4 µg/mL	4 µg/mL	64 µg/mL	4 µg/mL	32 µg/mL	64 µg/mL	16 µg/mL	Cc1sc(N)nc1/C(=N/O[C@@H](COc1ccc(C(=N)N[C@H]2CCCNC2)cc1)C(=O)O)C(=O)N[C@@H]1C(=O)N(OS(=O)(=O)O)C1(C)C [Example 5, (S)-2-((((Z)-1-(2-Amino-5-methylthiazol-4-yl)-2-(((S)-2,2-dimethyl-4-oxo-1-(sulfooxy)azetidin-3-yl)amino)-2-oxoethylidene)amino)oxy)-3-(4-(N-((S)-piperidin-3-yl)carbamimidoyl)phenoxy)propanoic acid]
8 µg/mL	1 µg/mL	1 µg/mL	0.25 µg/mL	2 µg/mL	2 µg/mL	2 µg/mL	4 µg/mL	1 µg/mL	8 µg/mL	Cc1sc(N)nc1/C(=N/O[C@@H](COc1ccc(C(=N)N[C@@H]2CCNC2)cc1)C(=O)O)C(=O)N[C@@H]1C(=O)N(OS(=O)(=O)O)C1(C)C [Example 6, (S)-2-((((Z)-1-(2-Amino-5-methylthiazol-4-yl)-2-(((S)-2,2-dimethyl-4-oxo-1-(sulfooxy)azetidin-3-yl)amino)-2-oxoethylidene)amino)oxy)-3-(4-(N-((R)-pyrrolidin-3-yl)carbamimidoyl)phenoxy)propanoic acid]
32 µg/mL	32 µg/mL	4 µg/mL	4 µg/mL	8 µg/mL	32 µg/mL	4 µg/mL	32 µg/mL	64 µg/mL	16 µg/mL	Cc1sc(N)nc1/C(=N/O[C@@H](COc1ccc(C(=N)NC2CNC2)cc1)C(=O)O)C(=O)N[C@@H]1C(=O)N(OS(=O)(=O)O)C1(C)C [Example 4, (S)-2-((((Z)-1-(2-Amino-5-methylthiazol-4-yl)-2-(((S)-2,2-dimethyl-4-oxo-1-(sulfooxy)azetidin-3-yl)amino)-2-oxoethylidene)amino)oxy)-3-(4-(N-(azetidin-3-yl)carbamimidoyl)phenoxy)propanoic acid]

From patent US12516048B2, “B-lactam compounds, their preparation and use as antibacterial agents” (NINGXIA ACADEMY OF AGRICULTURE AND FORESTRY SCIENCES, priority 2020, dated 2026)
